Laboratory results reported in US10760130B2, “Predictive biomarker for hypoxia-activated prodrug therapy” (MOLECULAR TEMPLATES, INC., priority 2014, dated 2020).

Tests used:
[1] = test system: locally advanced or metastatic pancreatic cancer; conditions: cited from earlier work
[2] = test system: locally advanced or metastatic pancreatic cancer; test: TH-CR-404 Phase II clinical trial in pancreatic cancer (NCT01144455); type: in vivo, human
Protocol: In the TH-CR-404 Phase II clinical trial in pancreatic cancer (NCT01144455), pancreatic cancer patients with locally advanced or metastatic disease were randomized in three study arms to receive Gemcitabine (Gem) therapy or the combination of Gemcitabine with one of 2 dose levels of TH-302. TH-302 was administered either at 240 or 340 mg/m^2 by intravenous infusion. A total of 214 patients were enrolled (Gemcitabine arm, n=69; Gemcitabine+TH-302 240 mg/m^2, n=71; Gemcitabine+TH-302 340 mg/m^2, n=74).
To search for potentially predictive serum biomarkers of the clinical benefit derived from TH-302 hypoxia-activated therapy, an initial search of candidate biomarkers was conducted from the trial pre-treatment serum samples using a multiplexed bead-based immunoassay (AssayGate, Inc., Ijamsville, Md.). When measuring serum samples for ENO1 and ENO2 protein levels by means of this bead-based, suspension immunoassay format for ENO1, the limit of detection of the assay was 1.8 ng/ml. For ENO2, the assay sensitivity was 1.2 ng/ml.
Following the identification of ENO2 as a potentially predictive biomarker for the clinical benefit derived from TH-302, the levels of ENO1 were tested in the same patient serum samples (Harris A L, 2002, Nat Rev Cancer 2: 38-47; Semenza G L, 2003, Nat Rev Cancer 3: 721-732). High levels of ENO1 were associated with improved PFS and OS in Gemcitabine+TH-302 340 mg/m^2 patient samples in this trial (FIG. 2). These associations were shown using the ENO1 cut-off value of the assay sensitivity limit (1.8 ng/ml) (FIGS. 2A and 2B).

[3] = test system: panel of 11 cancer cell-line derived models; conditions: tumor xenografts, variety of tumor types; cited from earlier work

In the case of `Cn1c(COP(=O)(NCCBr)NCCBr)cnc1[N+](=O)[O-]` [TH-302, (2-bromoethyl)({[(2-bromoethyl)amino][(2-nitro-3-methylimidazol-4-yl)methoxy]phosphoryl})amine], the “progression free survival (PFS) hazard ratio (HR)” value ([1]; Gemcitabine+TH-302 340 mg/m^2 (high-dose group) vs Gemcitabine alone, intravenous infusion, p=0.008) is given as 0.58, the “primary endpoint: progression free survival (PFS)” value ([1]; Gemcitabine+TH-302 groups (240 or 340 mg/m^2) compared to Gemcitabine alone) is given as “improved progression free survival” and the “difference between treatment groups of median PFS time among patients with high ENO2” value ([2]; Gem vs Gem+TH-302 340 mg/m^2, ENO2 median cut-off 20.3913 ng/ml, FIG. 1A) is given as “more pronounced”. The “difference between treatment groups of median OS time among patients with high ENO2” value ([2]; Gem vs Gem+TH-302 340 mg/m^2, ENO2 median cut-off 20.3913 ng/ml, FIG. 1B) was “more pronounced”, the “OS in patients with high serum ENO1 levels” value ([2]; Gemcitabine+TH-302 340 mg/m^2, ENO1 cut-off 1.8 ng/ml (more pronounced at 2.3 and 3.2 ng/ml), FIG. 2B-2D) was “improved” and the “PFS in patients with high serum ENO1 levels” value ([2]; Gemcitabine+TH-302 340 mg/m^2, ENO1 cut-off 1.8 ng/ml, FIG. 2A) was “improved”. The “monotherapy efficacy (tumor growth delay)” value [3] was “modest”.
